Among the data in patent US20240000767A1, “COMBINATION OF AN ALPHA2-ADRENOCEPTOR SUBTYPE C (ALPHA-2C) ANTAGONIST WITH A TASK1/3 CHANNEL BLOCKER FOR THE TREATMENT OF SLEEP APNEA” (Bayer Aktiengesellschaft, priority 2020, published 2024) are IC50 values, retold here.

Sequence of human ADRA2C receptor (P18825 whole entry): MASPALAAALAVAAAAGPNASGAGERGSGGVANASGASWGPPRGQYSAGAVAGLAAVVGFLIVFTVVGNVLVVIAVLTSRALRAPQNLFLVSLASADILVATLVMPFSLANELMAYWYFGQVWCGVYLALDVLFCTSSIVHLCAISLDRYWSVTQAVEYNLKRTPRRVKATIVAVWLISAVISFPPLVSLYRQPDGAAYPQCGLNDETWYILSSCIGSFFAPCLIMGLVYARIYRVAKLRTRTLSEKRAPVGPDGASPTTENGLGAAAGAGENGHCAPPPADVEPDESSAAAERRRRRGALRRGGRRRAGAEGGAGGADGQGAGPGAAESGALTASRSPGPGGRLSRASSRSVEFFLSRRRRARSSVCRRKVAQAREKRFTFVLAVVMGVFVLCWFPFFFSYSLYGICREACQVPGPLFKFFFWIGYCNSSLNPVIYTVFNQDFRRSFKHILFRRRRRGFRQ

This test has as its target human ADRA2C receptor (Homo sapiens (Human), UniProt P18825). The test can be described thus: In vitro activity assay to determine the inhibition of recombinant ADRA2C (CHO-K1 cells, aequorin bioluminescence). It is filed as cell-based. Particulars: inhibition of noradrenaline-induced bioluminescence signal; some mean values from multiple determinations; read-out: ARα2C IC50. Here is the method: B-2. In Vitro Activity Assay to Determine the Inhibition of Recombinant ADRA2C
The human ADRA2C receptor belongs to the G protein(guanine-dependent protein)-coupled receptors, the main function of which is the transduction of signals into the interior of the cell.
The investigations of the inhibition of the recombinant human ADRA2C receptors were carried out with stabily transfected CHO-K1 cells coexpressing the Gaq protein and the calcium-sensitive photoprotein aequorin. In this recombinant system, binding of the agonists noradrenaline to the ADRA2C receptor leads, after activation of a signal cascade, to calcium release from intracellular stores, which is detected by the intracellular calcium sensor aequorin as a bioluminescent signal. The method is described in detail in the reference below. [Wunder F., Kalthof B., Muller T., Hueser J. Functional Cell-Based Assays in Microliter Volumes for Ultra-High Throughput Screening. Combinatorial Chemistry & High Throughput Screening, Volume 11, Number 7, 2008, pp. 495-504(10). doi.org/10.2174/138620708785204054]
The activity of the test substances was determined via their ability to inhibit the agonist-induced increase of the bioluminescence signal. The concentration which can block half of this signal increase is referred to as IC50. The IC50 value is calculated using the 4 parameter logistic function (Hill function):
Top=upper threshold, Bottom=lower threshold, Slope=slope, IC50=turning point
As a reminder, the IC50 is the concentration needed to halve the response being measured. Turning to `Cc1sc(N2CCC(N3CCC[C@@H](C)C3)CC2)nc1C(=O)NCc1ncc(F)cc1F` [Example 9, N-[(3,5-difluoropyridin-2-yl)methyl]-5-methyl-2-[(3R)-3-methyl[1,4′-bipiperidin]-1′-yl]-1,3-thiazole-4-carboxamide], the IC50 was determined as 170 nM.
On to `C[C@@H]1CCCN(C2CCN(c3nc(C(=O)NCc4ncc(F)cc4F)cs3)CC2)C1` [Example 10, N-[(3,5-difluoropyridin-2-yl)methyl]-2-[(3R)-3-methyl[1,4′-bipiperidin]-1′-yl]-1,3-thiazole-4-carboxamide], for which the IC50 stood at 21.4 nM.
Take `C[C@@H]1CCCN(C2CCN(c3nc(C(F)(F)F)c(C(=O)NCc4ncc(F)cc4F)s3)CC2)C1` [Example 11, N-[(3,5-difluoropyridin-2-yl)methyl]-2-[(3R)-3-methyl[1,4′-bipiperidin]-1′-yl]-4-(trifluoromethyl)-1,3-thiazole-5-carboxamide]: the IC50 came out at 140 nM.
With `CCc1sc(N2CCC(N3CCC[C@@H](C)C3)CC2)nc1C(=O)NCc1ncc(F)cc1F` [Example 12, N-[(3,5-difluoropyridin-2-yl)methyl]-5-ethyl-2-[(3R)-3-methyl[1,4′-bipiperidin]-1′-yl]-1,3-thiazole-4-carboxamide], the half-inhibitory concentration (IC50) was 107 nM.
Under `C[C@@H]1CCCN(C2CCN(c3nc(C(=O)NCc4ncc(F)cc4F)co3)CC2)C1` [Example 13, N-[(3,5-difluoropyridin-2-yl)methyl]-2-[(3R)-3-methyl[1,4′-bipiperidin]-1′-yl]-1,3-oxazole-4-carboxamide] stands 209 nM; under `Cc1oc(N2CCC(N3CCC[C@@H](C)C3)CC2)nc1C(=O)NCc1ncc(F)cc1F` [Example 14, N-[(3,5-difluoropyridin-2-yl)methyl]-5-methyl-2-[(3R)-3-methyl[1,4′-bipiperidin]-1′-yl]-1,3-oxazole-4-carboxamide], 211 nM; under `CO[C@@H]1CCCN(C2CCN(c3ncc(C(=O)NCc4ncc(F)cc4F)s3)CC2)C1` [Example 15, N-[(3,5-difluoropyridin-2-yl)methyl]-2-[(3R)-3-methoxy[1,4′-bipiperidin]-1′-yl]-1,3-thiazole-5-carboxamide], 1850 nM.
Under `C[C@@H]1CCCN(C2CCN(c3ncc(C(=O)NCc4cccc(C(F)(F)F)c4)s3)CC2)C1` [Example 19, 2-[(3R)-3-Methyl[1,4′-bipiperidin]-1′-yl]-N-[3-(trifluoromethyl)benzyl]-1,3-thiazole-5-carboxamide] stands 690 nM; under `C[C@@H]1CCCN(C2CCN(c3ncc(C(=O)NCc4ncccc4F)s3)CC2)C1` [Example 20, N-[(3-Fluoropyridin-2-yl)methyl]-2-[(3R)-3-methyl[1,4′-bipiperidin]-1′-yl]-1,3-thiazole-5-carboxamide], 110 nM.
Under `C[C@@H]1CCCN(C2CCN(c3ncc(C(=O)NCc4cc(Cl)ccc4F)s3)CC2)C1` [Example 21, N-(5-Chloro-2-fluorobenzyl)-2-[(3R)-3-methyl[1,4′-bipiperidin]-1′-yl]-1,3-thiazole-5-carboxamide] stands 7.2 nM; under `C[C@@H]1CCCN(C2CCN(c3ncc(C(=O)NCc4ccc(C(F)(F)F)cc4)s3)CC2)C1` [Example 22, 2-[(3R)-3-Methyl[1,4′-bipiperidin]-1′-yl]-N-[4-(trifluoromethyl)benzyl]-1,3-thiazole-5-carboxamide], 640 nM.
In the case of `C[C@@H]1CCCN(C2CCN(c3ncc(C(=O)NCc4ncc(Cl)cc4F)s3)CC2)C1` [Example 23, N-[(5-chloro-3-fluoropyridin-2-yl)methyl]-2-[(3R)-3-methyl[1,4′-bipiperidin]-1′-yl]-1,3-thiazole-5-carboxamide], the IC50 stood at 17 nM.
Under `Cc1cccnc1CNC(=O)c1cnc(N2CCC(N3CCC[C@@H](C)C3)CC2)s1` [Example 24, 2-[(3R)-3-methyl[1,4′-bipiperidin]-1′-yl]-N-[(3-methylpyridin-2-yl)methyl]-1,3-thiazole-5-carboxamide] stands 1060 nM.
As for `Cc1ccnc(CNC(=O)c2cnc(N3CCC(N4CCC[C@@H](C)C4)CC3)s2)c1` [Example 25, 2-[(3R)-3-methyl[1,4′-bipiperidin]-1′-yl]-N-[(4-methylpyridin-2-yl)methyl]-1,3-thiazole-5-carboxamide], the IC50 is 2400 nM.
Under `C[C@@H]1CCCN(C2CCN(c3ncc(C(=O)NCc4ncccc4Cl)s3)CC2)C1` [Example 26, N-[(3-chloropyridin-2-yl)methyl]-2-[(3R)-3-methyl[1,4′-bipiperidin]-1′-yl]-1,3-thiazole-5-carboxamide] stands 280 nM; under `C[C@@H]1CCCN(C2CCN(c3ncc(C(=O)N(C)Cc4ncccc4F)s3)CC2)C1` [Example 27, N-[(3-fluoropyridin-2-yl)methyl]-N-methyl-2-[(3R)-3-methyl[1,4′-bipiperidin]-1′-yl]-1,3-thiazole-5-carboxamide], 310 nM; under `C[C@@H]1CCCN(C2CCN(c3ncc(C(=O)NCc4cccc(C(F)(F)F)n4)s3)CC2)C1` [Example 28, 2-[(3R)-3-methyl[1,4′-bipiperidin]-1′-yl]-N-{[6-(trifluoromethyl)pyridin-2-yl]methyl}-1,3-thiazole-5-carboxamide], 890 nM.
`C[C@@H]1CCCN(C2CCN(c3ncc(C(=O)NCc4ccc(Cl)cn4)s3)CC2)C1` [Example 29, N-[(5-chloropyridin-2-yl)methyl]-2-[(3R)-3-methyl[1,4′-bipiperidin]-1′-yl]-1,3-thiazole-5-carboxamide]: the IC50 worked out at 96 nM.
Under `C[C@@H]1CCCN(C2CCN(c3ncc(C(=O)NCc4ncc(F)cc4Cl)s3)CC2)C1` [Example 31, N-[(3-chloro-5-fluoropyridin-2-yl)methyl]-2-[(3R)-3-methyl[1,4′-bipiperidin]-1′-yl]-1,3-thiazole-5-carboxamide] stands 89 nM; under `C[C@@H]1CCCN(C2CCN(c3ncc(C(=O)NCc4cccc(OC(F)(F)F)n4)s3)CC2)C1` [Example 32, 2-[(3R)-3-methyl[1,4′-bipiperidin]-1′-yl]-N-{[6-(trifluoromethoxy)pyridin-2-yl]methyl}-1,3-thiazole-5-carboxamide], 640 nM.
With `C[C@@H]1CCCN(C2CCN(c3ncc(C(=O)NCc4ccc(Cl)cc4)s3)CC2)C1` [Example 33, N-(4-chlorobenzyl)-2-[(3R)-3-methyl[1,4′-bipiperidin]-1′-yl]-1,3-thiazole-5-carboxamide], the IC50 is 15 nM.
Consider `C[C@@H]1CCCN(C2CCN(c3ncc(C(=O)NCc4cc(F)ccc4Cl)s3)CC2)C1` [Example 34, N-(2-chloro-5-fluorobenzyl)-2-[(3R)-3-methyl[1,4′-bipiperidin]-1′-yl]-1,3-thiazole-5-carboxamide], for which the IC50 is 640 nM.
Under `Cc1ccc(CNC(=O)c2cnc(N3CCC(N4CCC[C@@H](C)C4)CC3)s2)cc1` [Example 35, N-(4-methylbenzyl)-2-[(3R)-3-methyl[1,4′-bipiperidin]-1′-yl]-1,3-thiazole-5-carboxamide] stands 1000 nM; under `Cc1cccc(CNC(=O)c2cnc(N3CCC(N4CCC[C@@H](C)C4)CC3)s2)c1` [Example 36, N-(3-methylbenzyl)-2-[(3R)-3-methyl[1,4′-bipiperidin]-1′-yl]-1,3-thiazole-5-carboxamide], 190 nM.
